The values below come from the supplement of paper PMC11208160.
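Further: IS621 recombinase and bridge RNA in Escherichia coli cells.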

This data set is described as follows: recombinant barcode read abundance after kanamycin selection (control-corrected) (log10(CPM+1)); higher = more efficient recombination; sequences stand for … in AGTGCAGAGAAAATCGGCCAGTTTTCTCTGCCTGCAGTCCGCATGCCGT…AGATTTATGCAGCGGACTGCCTTTCTCCCAAAGTGATAAACCGGACAGTATCATGGACCGGTTTTCCCGGTAATCCGTATTTGCAAGGTTGGTTTCACT; site = the 11-nt target. Put shortly:
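Recombination efficiency comes from barcode counts at recombinant junctions, converted to counts per million, averaged and corrected against the control. Values appear as log10(CPM+1). They were obtained from a pooled E. coli screen in which each oligo paired a target with an IS621 bridge RNA target-binding loop, and cells were plated in duplicate on chloramphenicol/ampicillin LB agar or on chloramphenicol/ampicillin/kanamycin with 0.1 mM IPTG.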
As to “GCCATGACTTGGGTTCTAACCTGTTGCCT (site GCCATTACTAG)”, the “recombinant barcode read abundance (log10)” value stood at 0.
In the case of “GCCCAATCTTGGGTTCTAACCTGTTGCCT (site GCCCAATCTAG)”, the “recombinant barcode read abundance (log10)” value is 1.05.
With “GCCCAATCTTGGGTTCTAACCTGTTGCCT (site GCCCCATCTAG)”, the “recombinant barcode read abundance (log10)” value was 0.115.
With “GCCCAATCTTGGGTTCTAACCTGTTGCCT (site GCCCGATCTAG)”, the “recombinant barcode read abundance (log10)” value turned out to be 0.176.
In the case of “GCCCAATCTTGGGTTCTAACCTGTTGCCT (site GCCCTATCTAG)” it was 0.195; in that of “GCCCAGCCTTGGGTTCTAACCTGTTGCGG (site ACCAAGCCTCC)”, 0.0607; in that of “GCCCAGCCTTGGGTTCTAACCTGTTGCGG (site GCCCAGCCTCC)”, 2.71.
For the sequence “GCCCTCCCTTGGGTTCTAACCTGTTGCCT (site GCACTCCCTAG)”, the “recombinant barcode read abundance (log10)” value was determined as 0.558.
Regarding “GCCCTCCCTTGGGTTCTAACCTGTTGCCT (site GCCCTCCCTAG)”, the “recombinant barcode read abundance (log10)” value is 1.77.
Regarding “GCCCTCCCTTGGGTTCTAACCTGTTGCCT (site GCGCTCCCTAG)”, the “recombinant barcode read abundance (log10)” value was found to be 0.0524.
In the case of “GCCCTCCCTTGGGTTCTAACCTGTTGCCT (site GCTCTCCCTAG)” it was 0.597; in that of “GCCGGCTCTTGGGTTCTAACCTGTTGCCT (site GACGGCTCTAG)”, 0.182; in that of “GCCGGCTCTTGGGTTCTAACCTGTTGCCT (site GCCGGCTCTAG)”, 1.35.
As for “GCCTAGTCTTGGGTTCTAACCTGTTGCCA (site GCCTAGTCTTG)”, the figure is 1.13; as for “GCCTAGTCTTGGGTTCTAACCTGTTGCCA (site TCCTAGTCTTG)”, 0.0302.
With “GCCTCGGCTTGGGTTCTAACCTGTTGCCT (site GCATCGGCTAG)”, the “recombinant barcode read abundance (log10)” value came out at 0.0156.
For “GCCTCGGCTTGGGTTCTAACCTGTTGCCT (site GCCTCGGCTAG)”, the “recombinant barcode read abundance (log10)” value is 0.134.
As for “GCCTCGGCTTGGGTTCTAACCTGTTGCCT (site GCGTCGGCTAG)”, the “recombinant barcode read abundance (log10)” value amounted to 0.0495.
On to “GCCTCGGCTTGGGTTCTAACCTGTTGCCT (site GCTTCGGCTAG)”, for which the “recombinant barcode read abundance (log10)” value was 0.0313.
Turning to “GCCTCGTCTTGGGTTCTAACCTGTTGCCT (site GCATCGTCTAG)”, the “recombinant barcode read abundance (log10)” value is 0.0638.
Regarding “GCCTCGTCTTGGGTTCTAACCTGTTGCCT (site GCCTCGTCTAG)”, the “recombinant barcode read abundance (log10)” value came out at 0.68.
For “GCCTCGTCTTGGGTTCTAACCTGTTGCCT (site GCGTCGTCTAG)”, the “recombinant barcode read abundance (log10)” value turned out to be 0.206.
For the sequence “GCCTCGTCTTGGGTTCTAACCTGTTGCCT (site GCTTCGTCTAG)”, the “recombinant barcode read abundance (log10)” value was 0.0462.
For the sequence “GCCTGAGCTTGGGTTCTAACCTGTTGCCT (site GCATGAGCTAG)”, the “recombinant barcode read abundance (log10)” value is 0.
For the sequence “GCCTGAGCTTGGGTTCTAACCTGTTGCCT (site GCCTGAGCTAG)”, the “recombinant barcode read abundance (log10)” value turned out to be 0.303.
“GCCTGAGCTTGGGTTCTAACCTGTTGCCT (site GCGTGAGCTAG)”: the “recombinant barcode read abundance (log10)” value turned out to be 0.272.
“GCCTGAGCTTGGGTTCTAACCTGTTGCCT (site GCTTGAGCTAG)”: the “recombinant barcode read abundance (log10)” value was 0.
Consider “GCCTGGGCTTGGGTTCTAACCTGTTGCCG (site GCCAGGGCTCG)”, for which the “recombinant barcode read abundance (log10)” value came out at 0.0298.
On to “GCCTGGGCTTGGGTTCTAACCTGTTGCCG (site GCCCGGGCTCG)”, for which the “recombinant barcode read abundance (log10)” value was 0.516.
Consider “GCCTGGGCTTGGGTTCTAACCTGTTGCCG (site GCCGGGGCTCG)”, for which the “recombinant barcode read abundance (log10)” value is 0.114.
On to “GCCTGGGCTTGGGTTCTAACCTGTTGCCG (site GCCTGGGCTCG)”, for which the “recombinant barcode read abundance (log10)” value came out at 0.72.
For the sequence “GCCTGGGCTTGGGTTCTAACCTGTTGCCT (site GCCTGGGCTAG)”, the “recombinant barcode read abundance (log10)” value is 0.317.
Regarding “GCCTGGGCTTGGGTTCTAACCTGTTGCCT (site GCCTTGGCTAG)”, the “recombinant barcode read abundance (log10)” value was 0.438.
In the case of “GCCTTGGCTTGGGTTCTAACCTGTTGCCT (site GCCTGGGCTAG)”, the “recombinant barcode read abundance (log10)” value was determined as 0.195.
As to “GCCTTGGCTTGGGTTCTAACCTGTTGCCT (site GCCTTGGCTAG)”, the “recombinant barcode read abundance (log10)” value is 0.572.
In the case of “GCGAACCCTTGGGTTCTAACCTGTTGCTT (site GCGAACCCTAA)” it was 1.47; in that of “GCGAACCCTTGGGTTCTAACCTGTTGCTT (site TCGAACCCTAA)”, 0.0595.
As for “GCGACTCCTTGGGTTCTAACCTGTTGCTT (site GCGACTCCTAA)”, the figure is 0.0299; as for “GCGACTCCTTGGGTTCTAACCTGTTGCTT (site GCGACTCCTAG)”, 0.0916; as for “GCGCACACTTGGGTTCTAACCTGTTGCCT (site ACGCACACTAG)”, 0.851.
As for “GCGCACACTTGGGTTCTAACCTGTTGCCT (site CCGCACACTAG)”, the “recombinant barcode read abundance (log10)” value was determined as 0.206.
For the sequence “GCGCACACTTGGGTTCTAACCTGTTGCCT (site GCGCACACTAG)”, the “recombinant barcode read abundance (log10)” value came to 1.05.
In the case of “GCGCACACTTGGGTTCTAACCTGTTGCCT (site TCGCACACTAG)”, the “recombinant barcode read abundance (log10)” value was determined as 0.319.
Take “GCGCATCCTTGGGTTCTAACCTGTTGCCT (site GCGAATCCTAG)”: the “recombinant barcode read abundance (log10)” value amounted to 0.719.
Regarding “GCGCATCCTTGGGTTCTAACCTGTTGCCT (site GCGCATCCTAG)”, the “recombinant barcode read abundance (log10)” value amounted to 0.753.
On to “GCGCATCCTTGGGTTCTAACCTGTTGCCT (site GCGGATCCTAG)”, for which the “recombinant barcode read abundance (log10)” value came to 0.306.
With “GCGCATCCTTGGGTTCTAACCTGTTGCCT (site GCGTATCCTAG)”, the “recombinant barcode read abundance (log10)” value was found to be 0.0569.
Take “GCGCGTTCTTGGGTTCTAACCTGTTGCCT (site GCGAGCTCTAG)”: the “recombinant barcode read abundance (log10)” value stood at 0.054.
On to “GCGCGTTCTTGGGTTCTAACCTGTTGCCT (site GCGCGTTCTAG)”, for which the “recombinant barcode read abundance (log10)” value came to 1.2.
As for “GCGGCTTCTTGGGTTCTAACCTGTTGCCT (site GAGGCTTCTAG)”, the figure is 0.0638; as for “GCGGCTTCTTGGGTTCTAACCTGTTGCCT (site GCGGCTTCTAG)”, 0.868; as for “GCGGCTTCTTGGGTTCTAACCTGTTGCCT (site GGGGCTTCTAG)”, 0.0151.
With “GCGGCTTCTTGGGTTCTAACCTGTTGCCT (site GTGGCTTCTAG)”, the “recombinant barcode read abundance (log10)” value is 0.121.
Regarding “GCGTCGGCTTGGGTTCTAACCTGTTGCCT (site GCATCGGCTAG)”, the “recombinant barcode read abundance (log10)” value was found to be 0.474.
For “GCGTCGGCTTGGGTTCTAACCTGTTGCCT (site GCCTCGGCTAG)”, the “recombinant barcode read abundance (log10)” value came to 0.177.
For the sequence “GCGTCGGCTTGGGTTCTAACCTGTTGCCT (site GCGTCGGCTAG)”, the “recombinant barcode read abundance (log10)” value is 0.183.
As for “GCGTCGGCTTGGGTTCTAACCTGTTGCCT (site GCTTCGGCTAG)”, the “recombinant barcode read abundance (log10)” value stood at 0.405.
As for “GCGTGCCCTTGGGTTCTAACCTGTTGCCT (site CCGTGCCCTAG)”, the figure is 0.552; as for “GCGTGCCCTTGGGTTCTAACCTGTTGCCT (site GCGTGCCCTAG)”, 0.82.
Turning to “GCTAACCCTTGGGTTCTAACCTGTTGCCT (site ACTAAACCTAG)”, the “recombinant barcode read abundance (log10)” value came out at 0.5.
With “GCTAACCCTTGGGTTCTAACCTGTTGCCT (site GCTAACCCTAG)”, the “recombinant barcode read abundance (log10)” value worked out at 1.18.
For “GCTAGTTCTTGGGTTCTAACCTGTTGCTT (site ACTCGTTCTAA)”, the “recombinant barcode read abundance (log10)” value was 0.0742.
For “GCTAGTTCTTGGGTTCTAACCTGTTGCTT (site GCTAGTTCTAA)”, the “recombinant barcode read abundance (log10)” value is 0.351.
As for “GCTCATACTTGGGTTCTAACCTGTTGCCT (site CACGCGCCTCC)”, the “recombinant barcode read abundance (log10)” value worked out at 0.0433.
As for “GCTCATACTTGGGTTCTAACCTGTTGCCT (site GCTCATACTAG)”, the “recombinant barcode read abundance (log10)” value is 0.714.
Regarding “GCTCTAGCTTGGGTTCTAACCTGTTGCTA (site ACTCTAGCTGA)”, the “recombinant barcode read abundance (log10)” value was determined as 0.143.
“GCTCTAGCTTGGGTTCTAACCTGTTGCTA (site GCTCTAGCTTA)”: the “recombinant barcode read abundance (log10)” value worked out at 0.515.
On to “GCTGCGACTTGGGTTCTAACCTGTTGCCT (site GCAGCGACTAG)”, for which the “recombinant barcode read abundance (log10)” value turned out to be 0.17.
For the sequence “GCTGCGACTTGGGTTCTAACCTGTTGCCT (site GCCGCGACTAG)”, the “recombinant barcode read abundance (log10)” value was found to be 0.101.
For “GCTGCGACTTGGGTTCTAACCTGTTGCCT (site GCGGCGACTAG)”, the “recombinant barcode read abundance (log10)” value turned out to be 0.0147.
In the case of “GCTGCGACTTGGGTTCTAACCTGTTGCCT (site GCTGCGACTAG)” it was 0.972.
In the case of “GCTGCGCCTTGGGTTCTAACCTGTTGCCT (site GCCGGGCCTAG)” it was 0.225.
As for “GCTGCGCCTTGGGTTCTAACCTGTTGCCT (site GCTGCGCCTAG)”, the “recombinant barcode read abundance (log10)” value worked out at 1.05.
As for “GCTGGGTCTTGGGTTCTAACCTGTTGCTT (site GCAGGGTCTAA)”, the figure is 0.466.
For “GCTGGGTCTTGGGTTCTAACCTGTTGCTT (site GCCGGGTCTAA)”, the “recombinant barcode read abundance (log10)” value was determined as 0.284.
For the sequence “GCTGGGTCTTGGGTTCTAACCTGTTGCTT (site GCGGGGTCTAA)”, the “recombinant barcode read abundance (log10)” value was 0.0202.
Regarding “GCTGGGTCTTGGGTTCTAACCTGTTGCTT (site GCTGGGTCTAA)”, the “recombinant barcode read abundance (log10)” value came to 1.65.
